Here are results for 10 compounds from patent US10954232B2, “Pyrazole derivative as ALK5 inhibitor and uses thereof” (HANMI PHARMACEUTICAL CO., LTD., priority 2016, dated 2021).

As a reminder, the IC50 is the concentration at which inhibition is half-maximal. Lower therefore signals greater potency.

Each structure is given as a SMILES string.

The assay concerns the target T1, ALK5 kinase (Homo sapiens, UniProt P36897).
T1 construct: GST; purchased Thermo Fisher Scientific Solutions
T1 sequence (P36897 34-503): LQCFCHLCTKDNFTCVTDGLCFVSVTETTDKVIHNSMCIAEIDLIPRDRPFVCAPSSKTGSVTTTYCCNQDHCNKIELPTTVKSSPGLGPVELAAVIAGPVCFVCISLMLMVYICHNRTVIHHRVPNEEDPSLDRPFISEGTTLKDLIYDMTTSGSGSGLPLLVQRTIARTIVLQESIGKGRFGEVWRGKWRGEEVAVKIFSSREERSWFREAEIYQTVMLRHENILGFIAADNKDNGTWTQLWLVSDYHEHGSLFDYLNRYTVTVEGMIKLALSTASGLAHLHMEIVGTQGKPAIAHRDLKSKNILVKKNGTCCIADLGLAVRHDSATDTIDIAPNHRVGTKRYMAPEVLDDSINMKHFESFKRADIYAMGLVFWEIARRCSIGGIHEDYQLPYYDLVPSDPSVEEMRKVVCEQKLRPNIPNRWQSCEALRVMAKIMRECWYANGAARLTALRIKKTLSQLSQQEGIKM
Briefly: Activity inhibition test on ALK5 enzyme (LanthaScreen Eu binding kinase assay). Particulars: kinase tracer 178, 60 minutes at room temperature. The method, boiled down:
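TR-FRET tracer-displacement format with final 5 nM ALK5, 2 nM Eu-GST antibody and 10 nM kinase tracer 178. Compound dilution series ran 1 μM–0.0001 μM, incubated 60 min at room temperature with stirring. Fluorescence was read ([…]), and IC50 came from percent inhibition versus control.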
On the technique in general: In TR-FRET formats the signal depends on donor and acceptor labels being close together.

In the case of `Cc1cccc(-n2nc(C(=O)Nc3ccc(S(=O)(=O)C4CC4)cc3)cc2-c2ccc3nonc3c2)n1` [Example 218, 5-(benzo[c][1,2,5]oxadiazol-5-yl)-N-(4-(cyclopropylsulfonyl)phenyl)-1-(6-methylpyridin-2-yl)-1H-pyrazole-3-carboxyamide], the IC50 lay in the range of 10 to 100 nM. The value for `Cc1cccc(-n2nc(C(=O)Nc3ccccc3F)cc2-c2ccc3ncoc3c2)n1` [Example 219, 5-(benzo[d]oxazol-6-yl)-N-(2-fluorophenyl)-1-(6-methylpyridin-2-yl)-1H-pyrazole-3-carboxyamide] was 27 nM. In the case of `Cc1cccc(-n2nc(C(=O)Nc3ccc(S(=O)(=O)C4CC4)cc3)cc2-c2ccc3ncoc3c2)n1` [Example 220], the IC50 was found to be 3.2 nM. The value for `Cc1cccc(-n2nc(C(=O)NC3CC3)cc2-c2ccc(F)c(-c3cnn(CCO)c3)c2)n1` [Example 221, N-cyclopropyl-5-(4-fluoro-3-(1-(2-hydroxyethyl)-1H-pyrazol-4-yl)phenyl)-1-(6-methylpyridin-2-yl)-1H-pyrazole-3-carboxyamide] was 4.3 nM.

Turning to `Cc1cccc(-n2nc(C(=O)Nc3cn[nH]c3)cc2-c2ccc(F)c(-c3cnn(CCO)c3)c2)n1` [Example 222, N-(1H-pyrazol-4-yl)-5-(4-fluoro-3-(1-(2-hydroxyethyl)-1H-pyrazol-4-yl)phenyl)-1-(6-methylpyridin-2-yl)-1H-pyrazole-3-carboxyamide], the IC50 was found to be 1 nM.

Take `Cc1cccc(-n2nc(C(=O)Nc3cnn(C)c3)cc2-c2ccc(F)c(-c3cnn(CCO)c3)c2)n1` [Example 223, N-(1-methyl-1H-pyrazol-4-yl)-5-(4-fluoro-3-(1-(2-hydroxyethyl)-1H-pyrazol-4-yl)phenyl)-1-(6-methylpyridin-2-yl)-1H-pyrazole-3-carboxyamide]: the IC50 worked out at 2.8 nM.

In turn, `Cc1cccc(-n2nc(C(=O)Nc3cnn(S(C)(=O)=O)c3)cc2-c2ccc(F)c(-c3cnn(CCO)c3)c2)n1` [Example 224, N-(1-(methylsulfonyl)-1H-pyrazol-4-yl)-5-(4-fluoro-3-(1-(2-hydroxyethyl)-1H-pyrazol-4-yl)phenyl)-1-(6-methylpyridin-2-yl)-1H-pyrazole-3-carboxyamide] yielded an IC50 of 3.1 nM. The value for `Cc1cccc(-n2nc(C(=O)Nc3ccc(Cl)cc3)cc2-c2ccc(F)c(-c3cnn(CCO)c3)c2)n1` [Example 225, N-(4-chlorophenyl)-5-(4-fluoro-3-(1-(2-hydroxyethyl)-1H-pyrazol-4-yl)phenyl)-1-(6-methylpyridin-2-yl)-1H-pyrazole-3-carboxyamide] was 33 nM. `Cc1cccc(-n2nc(C(=O)Nc3ccc(S(C)(=O)=O)cc3)cc2-c2ccc(F)c(-c3cnn(CCO)c3)c2)n1` [Example 226, N-(4-(methylsulfonyl)phenyl)-5-(4-fluoro-3-(1-(2-hydroxyethyl)-1H-pyrazol-4-yl)phenyl)-1-(6-methylpyridin-2-yl)-1H-pyrazole-3-carboxyamide] showed an IC50 of 4.7 nM.

Take `Cc1cccc(-n2nc(C(=O)Nc3ccccc3F)cc2-c2cc3cnccc3s2)c1` [Example 227, N-(2-fluorophenyl)-5-(thieno[3,2,c]pyridin-2-yl)-1-(m-tolyl)-1H-pyrazole-3-carboxyamide]: the IC50 was ~100 nM.
